# Test results taken from patent US10820591B2, “Substituted sulfonyl amides for controlling animal pests” (Bayer Aktiengesellschaft, priority 2016, dated 2020).
# Tested on: Meloidogyne incognita
# Experiment: Meloidogyne incognita test (sand, lettuce, gall formation)
# Type: in vivo
# Conditions: Meloidogyne incognita, 336 h, 4 ppm, after 14 days; read-out: nematicidal efficacy (formation of galls)
# Summary of the method: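 Gall counts on lettuce roots were scored after 14 days in sand inoculated with root-knot nematode eggs/larvae plus compound diluted in water. Values run from 0% (galls as in untreated plants) to 100% (gall-free).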
row,SMILES,pest or weed control at 4 ppm [%]
1,CCOc1ccc(Cl)c(S(=O)(=O)NC(=O)c2cn(-c3c(F)cccc3F)cn2)c1 [I-356],90
2,CC(C)Oc1ccc(Cl)c(S(=O)(=O)NC(=O)c2cn(-c3c(F)cccc3F)cn2)c1 [I-357],90

# Same assay, conditions: Meloidogyne incognita, 336 h, 20 ppm, after 14 days; read-out: nematicidal efficacy (formation of galls)
row,SMILES,pest or weed control at 20 ppm [%]
1,CC(C)Oc1ccc(Cl)c(S(=O)(=O)NC(=O)c2cn(-c3cc(F)cc(C(F)(F)F)c3)cn2)c1 [I-354],100
2,Cc1ccc(C)c(S(=O)(=O)NC(=O)c2cn(-c3cc(F)cc(C(F)(F)F)c3)cn2)c1 [I-355],100
3,Cc1ccc(C)c(S(=O)(=O)NC(=O)c2cn(-c3c(F)cccc3F)cn2)c1 [I-358],100
4,COc1ccc(Cl)c(S(=O)(=O)NC(=O)c2cn(-c3c(F)cccc3F)cn2)c1 [I-359],90
5,COc1ccc(F)c(S(=O)(=O)NC(=O)c2cn(-c3c(F)cccc3F)cn2)c1 [I-360],90
6,COc1ccc(Br)c(S(=O)(=O)NC(=O)c2cn(-c3c(F)cccc3F)cn2)c1 [I-361],90
7,Cc1nc(C(=O)NS(=O)(=O)c2c(Cl)cccc2Cl)cn1-c1c(F)cccc1F [I-362],90
8,COc1ccc(Cl)c(S(=O)(=O)NC(=O)c2cn(-c3c(F)cccc3F)c(C)n2)c1 [I-363],90
9,CCOc1ccc(Cl)c(S(=O)(=O)NC(=O)c2cn(-c3c(F)cccc3F)c(C)n2)c1 [I-364],90
10,Cc1nc(C(=O)NS(=O)(=O)c2cc(Cl)ccc2Cl)cn1-c1c(F)cccc1F [I-365],100
11,Cc1nc(C(=O)NS(=O)(=O)c2cc(OC(C)C)ccc2Cl)cn1-c1cc(Cl)cc(Cl)c1 [I-366],100
12,COc1ccc(F)c(S(=O)(=O)NC(=O)c2cn(-c3cc(Cl)cc(Cl)c3)c(C)n2)c1 [I-367],100
13,COc1ccc(Br)c(S(=O)(=O)NC(=O)c2cn(-c3cc(Cl)cc(Cl)c3)c(C)n2)c1 [I-368],90
14,COc1ccc(F)c(S(=O)(=O)NC(=O)c2cn(-c3cc(F)cc(Cl)c3)c(C)n2)c1 [I-369],100
15,COc1ccc(Br)c(S(=O)(=O)NC(=O)c2cn(-c3cc(F)cc(Cl)c3)c(C)n2)c1 [I-370],70
16,COc1ccc(F)c(S(=O)(=O)NC(=O)c2cn(-c3cc(F)cc(F)c3)c(C)n2)c1 [I-371],90
17,CC(=O)c1ccc(Cl)c(S(=O)(=O)NC(=O)c2cn(-c3cc(Cl)cc(Cl)c3)c(C)n2)c1 [I-372],100
18,CSc1cccc(Cl)c1S(=O)(=O)NC(=O)c1cn(-c2cc(Cl)cc(Cl)c2)c(C)n1 [I-374],100
19,CCSc1cccc(Cl)c1S(=O)(=O)NC(=O)c1cn(-c2cc(Cl)cc(Cl)c2)c(C)n1 [I-375],100
20,Cc1nc(C(=O)NS(=O)(=O)c2c(Cl)cccc2SC(C)C)cn1-c1cc(Cl)cc(Cl)c1 [I-376],90
21,Cc1nc(C(=O)NS(=O)(=O)c2c(F)cccc2NC(C)C)cn1-c1cc(Cl)cc(Cl)c1 [I-377],90
22,Cc1nc(C(=O)NS(=O)(=O)c2c(F)cccc2Cl)cn1-c1cc(Cl)cc(Cl)c1 [I-378],100
23,Cc1nc(C(=O)NS(=O)(=O)c2c(F)cccc2NC2CC2)cn1-c1cc(Cl)cc(Cl)c1 [I-379],100
24,Cc1nc(C(=O)NS(=O)(=O)c2c(F)cccc2NC2CC2)cn1-c1cc(F)cc(Cl)c1 [I-380],100
25,Cc1nc(C(=O)NS(=O)(=O)c2c(F)cccc2NC(C)C)cn1-c1cc(F)cc(Cl)c1 [I-381],100

row,SMILES,pest or weed control at 20 ppm [%]
1,CSc1cccc(Cl)c1S(=O)(=O)NC(=O)c1cn(-c2cc(F)cc(Cl)c2)c(C)n1 [I-382],100
2,CCSc1cccc(Cl)c1S(=O)(=O)NC(=O)c1cn(-c2cc(F)cc(Cl)c2)c(C)n1 [I-383],100
3,Cc1nc(C(=O)NS(=O)(=O)c2c(Cl)cccc2SC(C)C)cn1-c1cc(F)cc(Cl)c1 [I-384],100
4,CSc1cccc(Cl)c1S(=O)(=O)NC(=O)c1cn(-c2cc(F)cc(F)c2)c(C)n1 [I-386],100
5,Cc1nc(C(=O)NS(=O)(=O)c2c(Cl)cccc2SC(C)C)cn1-c1cc(F)cc(F)c1 [I-388],100
6,Cc1nc(C(=O)NS(=O)(=O)c2c(F)cccc2NC2CC2)cn1-c1cc(F)cc(F)c1 [I-389],100
7,CSc1cccc(Cl)c1S(=O)(=O)NC(=O)c1cn(-c2cc(Cl)cc(Cl)c2)cn1 [I-390],100
8,O=C(NS(=O)(=O)c1c(F)cccc1NC1CC1)c1cn(-c2cc(Cl)cc(Cl)c2)cn1 [I-393],100
9,CCc1nc(C(=O)NS(=O)(=O)c2cc(OC)ccc2Cl)cn1-c1cc(F)cc(F)c1 [I-394],100
10,COc1ccc(Cl)c(S(=O)(=O)NC(=O)c2cn(-c3cc(F)cc(F)c3)c(C(C)C)n2)c1 [I-395],90
11,Cc1nc(C(=O)NS(=O)(=O)c2c(F)cccc2Cl)cn1-c1cc(F)cc(Cl)c1 [I-396],90
12,Cc1nc(C(=O)NS(=O)(=O)c2c(F)cccc2Cl)cn1-c1cc(F)cc(F)c1 [I-397],70
13,CC(C)Sc1cccc(Cl)c1S(=O)(=O)NC(=O)c1cn(-c2cc(Cl)cc(Cl)c2)cn1 [I-398],90
14,Cc1nc(C(=O)NS(=O)(=O)c2c(F)cccc2Cl)cn1-c1cc(Cl)cc(C(F)(F)F)c1 [I-399],90
15,Cc1nc(C(=O)NS(=O)(=O)c2c(F)cccc2Cl)cn1-c1cc(F)cc(C(F)(F)F)c1 [I-400],90
16,CCc1nc(C(=O)NS(=O)(=O)c2cc(OC)ccc2Cl)cn1-c1cc(Cl)cc(Cl)c1 [I-402],90
17,COc1ccc(Cl)c(S(=O)(=O)NC(=O)c2cn(-c3cc(Cl)cc(Cl)c3)c(C(C)C)n2)c1 [I-403],90
18,CCc1nc(C(=O)NS(=O)(=O)c2cc(OC)ccc2Cl)cn1-c1cc(F)cc(C(F)(F)F)c1 [I-404],90
19,COc1ccc(Cl)c(S(=O)(=O)NC(=O)c2cn(-c3cc(F)cc(C(F)(F)F)c3)c(C(C)C)n2)c1 [I-405],100
20,CCc1nc(C(=O)NS(=O)(=O)c2cc(OC)ccc2Cl)cn1-c1cc(F)cc(Cl)c1 [I-406],100
21,CCc1nc(C(=O)NS(=O)(=O)c2cc(OC)ccc2Cl)cn1-c1cc(Cl)cc(C(F)(F)F)c1 [I-407],100
22,COc1ccc(Cl)c(S(=O)(=O)NC(=O)c2cn(-c3cc(F)cc(Cl)c3)c(C(C)C)n2)c1 [I-408],100
23,Cc1nc(C(=O)NS(=O)(=O)C(C)C)cn1-c1cc(Cl)cc(Cl)c1 [I-409],100
24,COc1ccc(S(=O)(=O)NC(=O)c2cn(-c3cc(F)cc(F)c3)c(C)n2)cc1 [I-410],100
25,COc1ccc(S(=O)(=O)NC(=O)c2cn(-c3cc(Cl)cc(Cl)c3)c(C)n2)cc1 [I-411],100

row,SMILES,pest or weed control at 20 ppm [%]
1,COc1ccc(Cl)c(S(=O)(=O)NC(=O)c2nc(C)n(-c3cc(Cl)cc(Cl)c3)c2F)c1 [I-413],100
2,O=C(NS(=O)(=O)c1ccccc1)c1ncn(-c2ccc(Cl)cc2)c1Cl [I-414],100
3,COc1ccc(S(=O)(=O)NC(=O)c2ncn(-c3ccc(Cl)cc3)c2Cl)cc1 [I-415],90
4,O=C(NS(=O)(=O)c1ccccc1Cl)c1ncn(-c2ccc(Cl)cc2)c1Cl [I-416],100
5,O=C(NS(=O)(=O)c1cccc(Cl)c1)c1ncn(-c2ccc(Cl)cc2)c1Cl [I-417],100
6,O=C(NS(=O)(=O)c1ccc(Cl)cc1)c1ncn(-c2ccc(Cl)cc2)c1Cl [I-418],100
7,COc1cccc(S(=O)(=O)NC(=O)c2ncn(-c3ccc(Cl)cc3)c2Cl)c1 [I-419],100
8,COc1ccccc1S(=O)(=O)NC(=O)c1ncn(-c2ccc(Cl)cc2)c1Cl [I-420],100
9,O=C(NS(=O)(=O)c1ccccc1)c1ncn(-c2ccc(C(F)(F)F)cc2)c1Cl [I-421],100
10,O=C(NS(=O)(=O)c1cccc(Cl)c1)c1ncn(-c2ccc(C(F)(F)F)cc2)c1Cl [I-422],100
11,O=C(NS(=O)(=O)c1ccccc1Cl)c1ncn(-c2ccc(C(F)(F)F)cc2)c1Cl [I-423],100
12,COc1ccccc1S(=O)(=O)NC(=O)c1ncn(-c2ccc(C(F)(F)F)cc2)c1Cl [I-424],100
13,COc1cccc(S(=O)(=O)NC(=O)c2ncn(-c3ccc(C(F)(F)F)cc3)c2Cl)c1 [I-425],100
14,COc1ccc(S(=O)(=O)NC(=O)c2ncn(-c3ccc(C(F)(F)F)cc3)c2Cl)cc1 [I-426],90
15,O=C(NS(=O)(=O)c1ccc(Cl)cc1)c1ncn(-c2ccccc2C(F)(F)F)c1Cl [I-427],100
16,O=C(NS(=O)(=O)c1cccc(Cl)c1)c1ncn(-c2ccccc2C(F)(F)F)c1Cl [I-428],90
17,COc1cccc(S(=O)(=O)NC(=O)c2ncn(-c3ccccc3C(F)(F)F)c2Cl)c1 [I-429],90
18,COc1ccc(S(=O)(=O)NC(=O)c2ncn(-c3ccccc3C(F)(F)F)c2Cl)cc1 [I-430],90
19,O=C(NS(=O)(=O)c1ccc(Cl)cc1)c1ncn(-c2cccc(C(F)(F)F)c2)c1Cl [I-431],90
20,O=C(NS(=O)(=O)c1cccc(Cl)c1)c1ncn(-c2cccc(C(F)(F)F)c2)c1Cl [I-432],90
21,O=C(NS(=O)(=O)c1ccccc1Cl)c1ncn(-c2cccc(C(F)(F)F)c2)c1Cl [I-433],100
22,O=C(NS(=O)(=O)c1ccccc1)c1ncn(-c2cccc(C(F)(F)F)c2)c1Cl [I-434],100
23,COc1ccccc1S(=O)(=O)NC(=O)c1ncn(-c2cccc(C(F)(F)F)c2)c1Cl [I-435],100
24,COc1cccc(S(=O)(=O)NC(=O)c2ncn(-c3cccc(C(F)(F)F)c3)c2Cl)c1 [I-436],100
